“Also recorded” adds a separate entry of the source. Each block holds one compound with its values, some of them ahead of it.
Tests used:
[1] = biological target: T1, SWELL1-LRRC8 channel (ICl,SWELL) in HEK-293 cells (Homo sapiens, UniProt Q8IWT6); test: ICl,SWELL inhibition after hypotonic activation, patch-clamp in HEK-293 cells; format: cell-based; conditions: HEK-293 cells, hypotonic (210 mOsm), 10 and 7 μM, relative to SN-401
T1 construct: endogenous in cells; host or cells: HEK-293 (ATCC CRL-1573)
Experimental: Mean presented±SEM. Two-tailed unpaired t-test was used. *, **, and *** represents p<0.05, p<0.01 and p<0.001, respectively.
(§1) Patch-clamp recordings of β-cells and mature adipocytes were performed as described previously (Kang et al., 2018; Zhang et al., 2017). 3T3-F442A WT and KO preadipocytes were prepared as described in the Cell culture section above. For SWELL1 overexpression recordings, preadipocytes were first transduced with Ad5-CAG-LoxP-stop-LoxP-3×Flag-SWELL1 (MOI 12) in 2% FBS culture medium for two days and then overexpression induced by adding Ad5-CMV-Cre-wt-lRES-eGFP (MOI 10-12) in 2% FBS culture medium for two more days and changed to 10% FBS containing culture media and were selected based on GFP expression (˜2-3 days). For cell recordings, islets were transduced with Ad-RIP2-GFP and then dispersed after 48-72 hours for patch-clamp experiments. GFP+ cells marked β-cells selected for patch-clamp recordings. […] Recordings were measured using […] amplifier paired to a Digidata 1550 digitizer using pClamp 10.4 software. The extracellular buffer composition for hypotonic stimulation contains 90 mM NaCl, 2 mM CsCl, 1 mM MgCl, 1 mM CaCb, 10 mM HEPES, 10 mM Mannitol, pH 7.4 with NaOH (210 mOsm/kg). The extracellular isotonic buffer composition is same as above except for Mannitol concentration of 110 mM (300 mOsm/kg). The composition of intracellular buffer is 120 mM L-aspartic acid, 20 mM CsCl, 1 mM MgCl, 5 mM EGTA, 10 mM HEPES, 5 mM MgATP, 120 mM CsOH, 0.1 mM GTP, pH 7.2 with CsOH. All recordings were carried out at room temperature (RT) with HEK-293 cells, β-cells and 3T3-F442A cells performed in whole-cell configuration and human adipocytes in perforated-patch configuration, as previously described (Kang et al., 2018; Zhang et al., 2017).

[2] = biological target: T2, closed SWELL1-LRRC8 channel in HEK-293 cells (Homo sapiens, UniProt Q8IWT6); test: ICl,SWELL inhibition on application to the closed SWELL1-LRRC8 channel (30 min preincubation), HEK-293 cells; format: cell-based; conditions: 1 μM, 30 minutes prior to hypotonic activation
T2 construct: endogenous in cells; host or cells: HEK-293 (ATCC CRL-1573)
Experimental: as §1

SWELL1 protein [3] = biological target: T3, SWELL1 protein (Mus musculus, UniProt Q80WG5); conditions: 3T3-F442A adipocytes, 1 and 10 μM, 4 days
[4] = biological target: ICl,SWELL (SWELL1 channel) (Homo sapiens, UniProt Q8IWT6); test: Patch-clamp screening of Smod compounds for ICl,SWELL inhibitory activity; format: cell-based; conditions: preliminary patch-clamp experiments, in words
From the text: FIG. 2. Patch-clamp screening of Smod compounds for ICL,SWELL inhibitory activity.
FIG. 3. Patch-clamp screening of Smod compounds for ICL,SWELL inhibitory activity.
A series of compounds (Smod compounds) were synthesized to evaluate the role of a butyrate side chain and aryl substituents on activity (see FIG. 1 and Table 1 below). In preliminary patch-clamp experiments to screen for compounds that preserve or enhance SWELL1 modulatory activity, unique structural derivatives were identified with ICl,SWELL inhibitory activity (Smod 2-6, FIGS. 2, 3, and 12-16, as well as Table 1 below). […] In vitro channel inhibitory activity was also maintained with Smod3-5 (FIG. 3). Note that compounds were also identified that lack activity, and therefore are not SWELL1 modulators (i.e., Snot1, FIGS. 2A and 3A). FIG. 4 summarizes three dose response curves of isolated enantiomers of Smod1 (+ and −) compared to Smod3. […] FIG. 5 summarizes the synthetic scheme used to generate these compounds.

HFD T2D mice = test: Glucose tolerance and fasting glucose in HFD T2D mice (Smod compounds, Example 2); format: in vivo
Experimental: FIG. 7. Representative glucose tolerance test data, area under curve (AUC) and fasting glucose for mice treated with a vehicle, and 5 mg/kg/day Smod3 or Snot1 for 5 days. Smod3, but not Snot1 improves glucose tolerance (as measured by are under the curve, AUC), and fasting glucose in HFD T2D mice. N=5 mice in each group. *p<0.05, ** p<0.01, *** p<0.001.
FIG. 8. Glucose Tolerance of obese T2D mice (16 weeks HFD): Pre-Smod6 (black circles), after Smod6 (5 mg/kg i.p.×5 days, pink triangles), 4 weeks after i.p. vehicle injection (blue diamonds), and 4 weeks after discontinuing Smod6 (maroon squares).
FIG. 9. Glucose Tolerance of obese T2D mice (16 weeks HFD): 4 weeks after i.p. vehicle injection (black circles), 4 weeks after Snot1 (5 mg/kg i.p.×5 days, blue squares), and 4 weeks after Smod6 (5 mg/kg i.p.×5 days, maroon triangles).
Moreover, Smod3, and not Snot1 (5 mg/kg i.p.×[…]) improve glucose tolerance (GTT, Area under the curve) and fasting glucose (FG) in mice raised on HFD for 8 weeks in pilot studies (FIG. 7).

SWELL1 protein [5] = biological target: T3, SWELL1 protein; test: Glucolipotoxic stress (palmitate + glucose) SWELL1 protein in 3T3-F442A adipocytes; conditions: 10 μM 96 h, 1 mM palmitate + 25 mM glucose
HFD-induced T2D mice = test: Metabolic phenotyping (fasting glucose, GTT, ITT) in HFD-fed T2D mice; format: in vivo; conditions: HFD 8 weeks, 5 mg/kg/day x 4 days, compared to SN071
Experimental: (§2) All compounds were dissolved in Kolliphor® EL (Sigma, #C5135).
Mice were fasted for 6 h prior to glucose tolerance tests (GTT). Baseline glucose levels at 0 min timepoint (fasting glucose, FG) were measured from blood sample collected from tail snipping using glucometer (Bayer Healthcare LLC). Either 1 g or 0.75 g D-Glucose/kg body weight were injected (i.p.) for lean or HFD mice, respectively and glucose levels were measured at 7, 15, 30, 60, 90 and 120 min timepoints after injection. For insulin tolerance tests (ITTs), the mice were fasted for 4 h. […] All mice and treatment groups were assessed blindly while performing experiments.

polygenic T2D KKAy mice = test: Metabolic phenotyping (fasting glucose, GTT, ITT) in polygenic T2D KKAy mice; format: in vivo; conditions: T2D KKAy mice, 5 mg/kg i.p. 4 days, compared to SN071
From the text: All C57BL/6 mice involved in study were purchased from Charles River Labs. Both KK.Cg-Ay/J (KKN) and KK.Cg-Aa/J (KKAa) mice involved in study were gender and age-matched mice obtained from Jackson Labs (Stock No: 002468) and bred up for experiments. The mice were fed ad libitum with either regular chow (RC) or high-fat diet (Research Diets, Inc., 60 kcal % fat) with free access to water and housed in a light-, temperature- and humidity-controlled room. For high-fat diet (HFD) studies, only male mice were used and were started on HFD regimen at the age of 6-9 weeks. For all experiments involving KKN and KKAa mice, both males and females were used at approximately 50/50 ratio. In all experiments involving mice, investigators were kept blinded both during the experiments and subsequent analysis.
as §2
Mice were fasted for 6 h prior to glucose tolerance tests (GTT). Baseline glucose levels at 0 min timepoint (fasting glucose, FG) were measured from blood sample collected from tail snipping using glucometer (Bayer Healthcare LLC). Either 1 g or 0.75 g D-Glucose/kg body weight were injected (i.p.) for lean or HFD mice, respectively and glucose levels were measured at 7, 15, 30, 60, 90 and 120 min timepoints after injection. For insulin tolerance tests (ITTs), the mice were fasted for 4 h. Similar to GTTs, the baseline blood glucose levels were measured at 0 min timepoint and 15, 30, 60, 90 and 120 min timepoints post-injection (i.p.) of insulin (HumulinR, 1 U/kg body weight for lean mice or 1.25 U/kg body weight for HFD mice). […] The collected plasma was then measured for insulin content by using Ultra-Sensitive Mouse Insulin ELISA Kit (Crystal Chem, #90080). All mice and treatment groups were assessed blindly while performing experiments.

[6] = tested on: islets, glucose-stimulated insulin secretion; test: Islet perifusion GSIS assay, islets from treated T2D mice; format: in vivo; conditions: islets of T2D KKAy mice, compared to SN071
Experimental: For patch-clamp studies involving primary mouse cells, the mice were anesthesized by injecting Avertin (0.0125 g/ml in H2O) followed by cervical dislocation. […] Perifusion buffer contained (in mM): 120 NaCl, 24 NaHCO3, 4.8 KCl, 2.5 CaCl, 1.2 MgSO4, 10 HEPES, 2.8 glucose, 27.2 mannitol, 0.25% w/v bovine serum albumin, pH 7.4 with NaOH (300 mOsm/kg). Perifusion buffer kept at 37° C. was circulated at 120 μI/min After 48 min of washing with 2.8 mM glucose solution for stabilization, islets were stimulated with the following sequence: 16 min of 16.7 mM glucose, 40 min of 2.8 mM glucose, 10 min of 30 mM KCl, and 12 min of 2.8 mM glucose. Osmolarity was matched by adjusting mannitol concentration when preparing solution containing 16.7 mM glucose. Serial samples were collected either every 1 or 2 min into 96 wells kept at 4° C. Insulin concentrations were further determined using commercially available ELISA kit (Mercodia). The area under the curve (AUC) for the high-glucose induced insulin release was calculated for time points between 50 to 74/84 min. At the completion of the experiments, islets were further lysed by addition of RIPA buffer and the amount of insulin was detected by ELISA.

[7] = mice on HFD 8 weeks, 5 mg/kg i.p. x 4 days (FIG. 7 legend: 5 days), listed as Smod3, 5 mg/kg

SMILES: CCCCC1(C2CCCC2)Cc2cc(OCCCN(C)C)c(Cl)c(Cl)c2C1=O.Cl (racemic) [UICK-IV-105b]
ICl,SWELL inhibitory activity ([4]; listed as Smod2): active; also recorded: maintaining activity

SMILES: CCCCC1(C2CCCC2)Cc2cc(OCCCCCC(=O)O)c(Cl)c(Cl)c2C1=O (racemic) [UIPC-III-045B]
Glucose tolerance 4 weeks after discontinuing treatment (HFD T2D mice; T2D HFD fed mice, 5 mg/kg i.p. x 5 days, after 20 weeks HFD): sustain improved glucose tolerance

SMILES: O=C(O)CCCOc1cc2c(c(Cl)c1Cl)C(=O)C(C1CCCC1)C2 (centres unmarked) [UIPC-III-083B, 4-((6,7-dichloro-2-cyclopentyl-1-oxo-2,3-dihydro-1H-inden-5-yl)oxy)butanoic acid]
On-target inhibition of ICl,SWELL ([1]; listed as SN072): entirely eliminated; also recorded: eliminate ICl,SWELL inhibitory activity
Subsequent hypotonic SWELL1-LRRC8 activation [2]: inactive
SWELL1 protein level relative to vehicle-treated controls (SWELL1 protein [3]): do not significantly increase
Prevention of palmitate/glucose-induced SWELL1 protein reduction (SWELL1 protein [5]): not

SMILES: CCCCC1(C2CCCC2)Cc2cc(OCCCC(=O)O)c(C)c(C)c2C1=O (racemic) [UIPC-II-187B]
ICl,SWELL inhibitory activity ([4]; listed as Smod5): did not significantly alter activity; also recorded: maintaining activity

SMILES: CCCCC1(C2CCCC2)Cc2cc(OCCCCC(=O)O)c(Cl)c(Cl)c2C1=O (racemic) [UICK-IV-119]
ICl,SWELL inhibitory activity ([4]; listed as Smod3): maintaining and augmenting activity
Fasting glucose (FG) (HFD T2D mice; [7]): improves
Glucose tolerance (GTT, area under the curve) (HFD T2D mice; [7]): improves

SMILES: CCCCC1(C2CCCC2)Cc2cc(OCC(=O)O)c(Cl)c(Cl)c2C1=O (centres unmarked) [UICK-IV-101a]
ICl,SWELL inhibitory activity ([4]; listed as Snot1): lack activity; also recorded: lacking ICl,SWELL inhibitory activity
Glucose tolerance (GTT, area under the curve) (HFD T2D mice; mice on HFD 8 weeks, 5 mg/kg i.p. x 4 days (FIG. 7 legend: 5 days)): not

SMILES: CCCCC1(C2CCCC2)Cc2cc(OCCCCCCC(=O)O)c(Cl)c(Cl)c2C1=O (centres unmarked) [SN-407, 7-((2-butyl-6,7-dichloro-2-cyclopentyl-1-oxo-2,3-dihydro-1H-inden-5-yl)oxy)heptanoic acid]
On-target inhibition of ICl,SWELL [1]: maintained or enhanced; also recorded: increase
Glucose tolerance based on the GTT AUC (polygenic T2D KKAy mice): improved
GSIS [6]: increased

SMILES: CCCCC1(C2CCCC2)Cc2cc(OC/C=C/C(=O)O)c(Cl)c(Cl)c2C1=O (racemic) [UIPC-II-179]
ICl,SWELL inhibitory activity [4]: maintaining activity

More lines, main results first:

On-target inhibition of ICl,SWELL [1]: eliminate ICl,SWELL inhibitory activity
On-target inhibition of ICl,SWELL ([1]; listed as S1\1071): entirely eliminated
Subsequent hypotonic SWELL1-LRRC8 activation [2]: inactive
SWELL1 protein level relative to vehicle-treated controls (SWELL1 protein [3]): do not significantly increase
SMILES: CCCCC1(C2CCCC2)Cc2cc(OCC(=O)O)c(Cl)c(Cl)c2C1=O (centres unmarked) [SN071, 2-((2-butyl-6,7-dichloro-2-cyclopentyl-1-oxo-2,3-dihydro-1H-inden-5-yl)oxy)acetic acid]

On-target inhibition of ICl,SWELL [1]: maintained or enhanced
SMILES: CCCCC1(C2CCCC2)Cc2cc(OCCCCC(=O)O)c(Cl)c(Cl)c2C1=O (centres unmarked) [SN-403, 5-((2-butyl-6,7-dichloro-2-cyclopentyl-1-oxo-2,3-dihydro-1H-inden-5-yl)oxy)pentanoic acid]
Fasting blood glucose (HFD-induced T2D mice): significantly reduced
Glucose tolerance (HFD-induced T2D mice): improved

From US20220242812A1, “SWELL1-LRRC8 COMPLEX MODULATORS” (Washington University, priority 2019, published 2022)
